Consider 36 molecules from the Deep4Chem optical property database.

SMILES strings stand for the structures.

The data set can be described thus: solvent given as SMILES.

For the molecule `COc1ccc(O)c(-c2[nH]c(=O)n3c2-c2ccccc2C3=O)c1`, the absorption maximum is 395 nm (in CC#N), 401 nm (in CO) and 399 nm (in ClCCl).
With `CN1C(=CC2=C([O-])C(=O)C2=C(C#N)C#N)Sc2ccccc21`, the absorption maximum (in CCO) is 481 nm.
With `Clc1ccc2nc3cc4ccccc4cc3c(-c3ccccc3)c2c1`, the absorption maximum (in ClCCl) is 402 nm.
`COc1c2ccccc2c(OC)c2c1c1ccccc1n2C`: the absorption maximum by setting is: (in C1CCCCC1) 405 nm; (in CC#N) 406 nm; (in CO) 405 nm; (in ClCCl) 409 nm.
Where the note is “in ClCCl”, `c1ccc(N(c2ccccc2)c2ccc3c(c2)-c2ccccc2C32c3ccccc3-n3c4ccccc4c4cccc2c43)cc1` (centres undefined) returned an absorption maximum of 354 nm.
Molecule `CC(C)(C)c1ccc(C2=CC3=C(c4ccccc4)c4cc(-c5ccc(C(C)(C)C)cc5)c(-c5ccc(C(C)(C)C)cc5)n4[B-](F)(F)[N+]3=C2c2ccc(C(C)(C)C)cc2)cc1` registered an absorption maximum (in C1CCCCC1) of 602 nm; an absorption maximum (in C1CCOC1) of 601 nm; an absorption maximum (in CC#N) of 590 nm; an absorption maximum (in Cc1ccccc1) of 605 nm; an absorption maximum (in ClCCl) of 598 nm.
`C[Si](C)(C)C#Cc1cccc2ccccc12` showed an absorption maximum (in C1CCCCC1) of 316 nm.
As for `CN1/C(=C/C=C(/C=C/C2=[N+](C)c3ccccc3C2(C)C)c2ccc(C(F)(F)F)cc2)C(C)(C)c2ccccc21`, the absorption maximum runs as follows: (in CCO) 637 nm; (in CO) 634 nm; (in CS(C)=O) 643 nm; (in O) 632 nm.
For `O=[N+]([O-])c1ccc(/C=C/c2cn(S(=O)(=O)c3ccccc3)c3ccccc23)cc1`, the absorption maximum reads like this: (in CC#N) 369 nm; (in CCCCCCC) 357 nm; (in CO) 367 nm; (in O) 378 nm.
`CCCN1c2ccccc2Sc2cc(C#CC3=C4C=CC=[N+]4[B-](F)(F)n4cccc43)ccc21` registered an absorption maximum (in ClCCl) of 540 nm.
Turning to `Cc1cc(-c2nc(-c3ccccc3)nc(-c3ccccc3)n2)ccc1N1c2ccccc2C2(c3ccccc3-c3ccccc32)c2ccccc21`, for the setting “in Cc1ccccc1”, the absorption maximum worked out at 394.19 nm.
`Ic1ccc(-c2c3ccc(=[N+]4CCCCC4)cc-3oc3cc(N4CCCCC4)ccc23)cc1` yielded an absorption maximum (in CCO) of 568 nm and an absorption maximum (in ClCCl) of 570 nm.
As for `CCOC(=O)c1cc(C(=O)OCC)c2cccc(OCc3ccccc3)c2n1`, the absorption maximum (in CCO) is given as 366 nm.
As for `c1ccc(N(c2ccccc2)c2ccc(N(c3ccccc3)c3ccc4ccc5c(N(c6ccccc6)c6ccc(N(c7ccccc7)c7ccccc7)cc6)ccc6ccc3c4c65)cc2)cc1`, where the note is “in ClCCl”, the absorption maximum is 438 nm.
Molecule `CC(=O)c1c2c(cc3cc(N(C)C)ccc13)CCC2` came in with an absorption maximum (in C1CCCCC1) of 363 nm; an absorption maximum (in C1CCOC1) of 370 nm; an absorption maximum (in C1COCCO1) of 370 nm; an absorption maximum (in CC#N) of 370 nm; an absorption maximum (in CCO) of 374 nm; an absorption maximum (in CS(C)=O) of 374 nm. Moreover, the absorption maximum runs as follows: (in Cc1ccccc1) 368 nm; (in ClC(Cl)Cl) 373 nm; (in ClCCl) 372 nm.
Take `Clc1nnc(O/N=C/c2ccc(N(c3ccc(Br)cc3)c3ccc(Br)cc3)cc2)nn1`: the absorption maximum (in ClCCl) is on record as 520 nm.
On the same count and under the same terms, the result for `CCN(CC)c1ccc2cc(-c3ccc(-c4ccc(-c5cc6ccccc6oc5=O)cc4)cc3)c(=O)oc2c1` reads 409 nm; that for `C[Si]1(C)O[Si](C)(C)c2cc3c(-c4ccccc4F)c4cc(Cl)ccc4nc3cc21`, 380 nm.
`O=Cc1ccc(-c2ccc(C3=CCC(c4ccccc4)CC3)s2)s1` (centres undefined): the absorption maximum is, setting by setting: (in C1CCOC1) 385 nm; (in CC#N) 385 nm; (in CCCCCC) 380 nm; (in CCO) 389 nm; (in OCCOCCO) 389 nm; (in c1ccncc1) 393 nm.
With `CCC1=C(C)C(=O)n2c1cc1c(CCC(=O)O)c(C)c(C)n1c2=O`, the absorption maximum is reported as 416 nm (in CC#N); 415 nm (in CC(C)=O); 421 nm (in CO); 421 nm (in CS(C)=O); 423 nm (in ClC(Cl)Cl); 419 nm (in c1ccccc1).
As for `CNCCCN1c2ccccc2CCc2ccccc21`, the absorption maximum is reported as 276 nm (in CC#N), 276 nm (in CO) and 275 nm (in O).
The molecule `CCn1c(-c2ccc(-c3ccc4c(c3)C(c3ccccc3)(c3ccccc3)c3ccccc3-4)cc2)c(-c2ccc3ccccc3c2)c(-c2ccc3ccccc3c2)c1-c1ccc(-c2ccc3c(c2)C(c2ccccc2)(c2ccccc2)c2ccccc2-3)cc1` returned an absorption maximum (in CCOC(C)=O) of 325 nm.
Regarding `C1=CC2=CC=CC3C=c4c(cc5cccc6cccc4c65)C(=C1)C23` (centres undefined), the absorption maximum (in ClCCl) is on record as 543 nm.
With `Cc1ccc(-c2c3nc(c(-c4ccc(C)cc4)c4ccc([nH]4)c(-c4ccc(C)cc4)c4nc(c(-c5ccc(C)cc5)c5ccc2[nH]5)C=C4N2CCOCC2)C=C3)cc1`, the absorption maximum (in CS(C)=O) was found to be 653 nm.
`F[B-]1(F)OC(c2cc3c4c(c2)CCCN4CCC3)=Cc2cccc[n+]21` had an absorption maximum (in ClC(Cl)Cl) of 450 nm.
`COc1c(/C=N/Nc2ccc(C#N)cc2)ccc2ccccc12`: the absorption maximum reads like this: (in CC#N) 380 nm; (in CCCCCC) 387 nm; (in CO) 382 nm; (in CS(C)=O) 392 nm; (in ClC(Cl)Cl) 385 nm.
`CC1(C)CC(NCc2ccc3ccc4cccc5ccc2c3c45)CC(C)(C)N1`: the absorption maximum turned out to be 374 nm (in C1CCCCC1), 374 nm (in CC#N), 374 nm (in CO) and 389 nm (in ClC(Cl)Cl).
For the molecule `COc1ccc(/C=C/C2=[O+][B-](F)(F)OC(/C=C/c3ccc(OC)c4ccccc34)=C2c2ccccc2)c2ccccc12`, the absorption maximum (in CC#N) is 550 nm; the absorption maximum (in CC(C)=O) is recorded as 549 nm; the absorption maximum (in CCOC(C)=O) amounted to 542 nm; the absorption maximum (in CCOCC) was found to be 540 nm; the absorption maximum (in ClC(Cl)(Cl)Cl) is reported as 542 nm; the absorption maximum (in ClCCl) was determined as 556 nm.
For the setting “in CC#N”, `Cc1ccc(-c2ccc(/C=C/c3ccc(Br)n3C)cn2)nc1` came in with an absorption maximum of 373 nm.
In the case of `CCOC(=O)/C=C/C1=C(c2ccc(C)cc2)C2=Nc3c(-c4ccc(C)cc4)cc(-c4ccc(C)cc4)n3[B-](F)(F)[N+]2=C1c1ccc(C)cc1`, the absorption maximum (in ClC(Cl)Cl) stood at 663 nm.
The molecule `N#Cc1c(-n2c3ccccc3c3ccccc32)cc(N2c3ccccc3C(c3ccccc3)(c3ccccc3)c3ccccc32)cc1-n1c2ccccc2c2ccccc21` displayed an absorption maximum (in Cc1ccccc1) of 368 nm.
`O=[N+]([O-])c1cc(C=C(C#Cc2ccccc2)C#Cc2ccccc2)ccc1C=C(C#Cc1ccccc1)C#Cc1ccccc1` came in with an absorption maximum (in ClC(Cl)Cl) of 413 nm.
`O=C1O/C(=C\c2cccs2)c2ccccc21`: the absorption maximum (in CC#N) was determined as 355 nm.
Take `Clc1cnc2nn3ccccc3c2n1`: the absorption maximum (in C1CCOC1) is recorded as 404 nm.
Turning to `CC1=CC(C)=[N+]2C1=C(c1ccc(N(C)C)cc1)c1c(C)cc(/C=C/c3ccc(N(C)C)cc3)n1[B-]2(F)F`, the absorption maximum (in CCOCC) is reported as 591 nm.
As for `c1ccc2c3c(ccc2c1)-c1c2ccccc2cc2cccc-3c12`, for the setting “in CCCCCCC”, the absorption maximum turned out to be 449 nm.
